# Results reported in patent US9037230B2, “Method and device for treating microscopic tumors remaining in tissues following surgical resection” (OncoSec Medical Incorporated, priority 2006, dated 2015).
# Experiments:
# [1] = Breaking strength of healing skin incisions in swine after Bleomycin with or without electroporation; assay type: in vivo
# Procedure: (§1) In this experiment eighteen transcutaneous incisions were made into the dorsal muscles in each of eight pig test animals grouped 1-6. In study groups 1-5, longitudinal incisions were made while in group 6 the incisions were transverse to the longitudinal orientation of the muscle fiber. At each incision site, either nothing, normal saline, or Bleomycin in solution was injected such that injections were placed to a 1 cm depth and spaced at 1 cm distances from one another with three injections, one on each side of each incision within 3 cm of each other and one in the center of the incision. Bleomycin, an anti-cancer agent, was used wherein each injection consisted of 0.125 ml (4 units/ml saline). The incisions were then treated with bipolar pulses of 530 V, 100 μsec each, from a pulse generator using a 6-needle electrode array of 0.5 cm diameter (nominal field strength for each pulse was 1,233 V/cm).
# (§2) Specifically, 8 male Yorkshire/Hampshire cross swine (40-50 kg) were acclimated 5-7 days prior to surgery. Incision locations were marked on the dorsum using sterile surgical markers. Each incision was 5 cm long and made to a depth of 5 mm into the muscle. All animals in groups 1-5 received 18 longitudinal incisions each, while animals in group 6 received transverse incisions, in accordance with Table I. Each study group comprised 24 incisions.
# Injections of a total volume of 1.5 ml of saline or Bleomycin (6 U) were administered at 12 sites per incision, 6 in the muscle and 6 in the skin. Incisions treated with electroporation were electroporated using a 0.5 cm diameter, 1.5 cm long needle array. On each side of the muscle incision, electroporation was given 3 times in the central 3 cm of the incision, each electroporation site being 1 cm apart from the other. Skin was not electroporated. The epimysium was closed with 4-0 Vicryl absorbable interrupted sutures. The skin was closed with 4-0 nylon interrupted sutures. Swine were sacrificed at 2 d, 1 wk, 2 wks, or 3 wks following surgery. Histology specimens containing skin and at least 5 mm depth of underlying muscle were taken from the center of the incision and immediately placed in 10% neutral buffered formalin. An additional control specimen was taken from non-incised skin on the dorsum. After staining and sectioning, skin, subcutaneous tissue, and muscle were graded histologically on a 0-3 scale using the following parameters: Healing, Granulations/Fibrosis, PMN's, Lymphocytes, Histiocytes, Necrosis, Hemorrhage and Atypical Cells.
# Mechanical testing was performed on strips of skin removed from the center of the incision at three different time points, namely, Days 7, 14, and 21. […] Breaking strength was determined by plotting the […] versus the strain for each incision up to the breaking point. […]
# [2] = Histological evaluation of incision healing (skin, subcutaneous tissue, muscle) in swine; assay type: in vivo
# Procedure: as §1, §2
# Injections of a total volume of 1.5 ml of saline or Bleomycin (6 U) were administered at 12 sites per incision, 6 in the muscle and 6 in the skin. Incisions treated with electroporation were electroporated using a 0.5 cm diameter, 1.5 cm long needle array. On each side of the muscle incision, electroporation was given 3 times in the central 3 cm of the incision, each electroporation site being 1 cm apart from the other. Skin was not electroporated. The epimysium was closed with 4-0 Vicryl absorbable interrupted sutures. The skin was closed with 4-0 nylon interrupted sutures. Swine were sacrificed at 2 d, 1 wk, 2 wks, or 3 wks following surgery. […]
# [3] = tested on: HT-29 human colon carcinoma cells; test: Tumor recurrence after surgery and Bleomycin electroporation therapy (EPT) in nude mice with HT-29 tumors; assay type: in vivo; conditions: for % efficacy (animals that did NOT experience tumor growth post treatment): three weeks after treatment
# Procedure: In this example, a series of experiments were performed in mice wherein tumor recurrence rates were determined after surgery alone or after surgery and EPT. Specifically, this experiment comprises an in vivo study to establish the efficacy of EPT on surgical margin treatment in nude mice after subcutaneous introduction of HT-29 human colon carcinoma cells and resection of the tumors that arise from such introduction. The experiment was conducted under humane conditions with respect to treatment of the test animals.
# The experimental design was as follows. Normal Athymic Nude female mice 4-6 weeks of age were placed in 8 groups of six mice each, except for Group 1 which comprised 10 animals and Group 3 comprising 7 animals. The HT-29 cell line is derived from a human colon carcinoma and is an aggressive fast-growing tumor in mice. In each group the animals received HT-29 human tumor cells in the form of two adjacent inocula of 5×10^6 cells using a 21 gauge needle and syringe. The HT-29 cell line was obtained from […] (#HTB-38), grown in McCoy's 5a medium (modified) with 1.5 mM L-glutamine adjusted to contain 2.2 g/L sodium bicarbonate, 90%, and fetal bovine serum, 10%. Cells were divided 1:2 to 1:4 on growth cycles until sufficient cells were available to use in this experiment.
# Following inoculation the tumors became established at the site of the inoculations. The tumor volume on each animal was monitored regularly and calculated using the formula: Tumor volume=(a^2×b/2) where ‘a’ is the smallest diameter and ‘b’ is the largest diameter perpendicular to ‘a’. Tumors were measured three times per week starting from the day the tumors were palpable by hand. The tumors were allowed to progress until the size was between 500 and 1500 cubic millimeters. Surgical tumor removal, partial removal, or no removal was then performed in association with either EPT or no EPT. In these experiments EPT means treatment with Bleomycin and electroporation (EP). The EP, where performed, was conducted with one pulse cycle (i.e., 6 pulses at 4 Hz) per electrode insertion using a standard MedPulser generator (Genetronics, Inc. San Diego, Calif.) and an applicator with a disposable six needle array of 1 cm diameter, a distance between electrodes of 0.86 cm, and 1 cm needle length. […] The needle array was inserted percutaneously and essentially perpendicular to the surface of the flank of the mouse carrying the tumor. Alternatively, in those cases where the tumor was excised first, followed by i.v. injection of Bleomycin and then by EP, the needle electrode array was inserted percutaneously encompassing the surgical wound area (Groups 5-8).
# Where Bleomycin was used in the experiment, it was injected at 4 U/ml saline (1U=1 mg) as uniformly as possible into tumor and margin tissues, as indicated, at a dose of 0.25 ml/cm^3 volume of tissue to be treated. Alternatively, where indicated, a corresponding amount of Bleomycin was injected into the tail vein.
# The experiment used 8 cohorts of at least 6 mice each. Each cohort was subjected to a treatment regimen of a combination of any of EP, Bleomycin, saline instead of Bleomycin, complete tumor excision, partial tumor excision, and no tumor excision. Tables II and III disclose the treatment regimens.
# For experiments on animals listed in Table II, the animals were anaesthetized, followed by removal or partial removal of the tumor as indicated, followed in turn by intraveneous (i.v.) injection of Bleomycin or saline. The Bleomycin dose was dependent on tumor size as described above. After 3 to 4 minutes, the animals indicated were treated with EP followed by closure of the wound with clips and surgical adhesive. In cohort 1, the entire tumor was surgically removed (see, for example FIGS. 12B and C) and the animals treated with Bleomycin and EP. In cohort 2, the tumors were removed from the animals but only saline was injected instead of Bleomycin and no EP was performed. […]
# [4] = tested on: HT-29 human colon carcinoma cells; test: Gross consistency of HT-29 tumors excised at various times after Bleomycin-EPT; assay type: in vivo, mice
# Procedure: For this purpose, three additional cohort Groups 9, 10, and 11 were used.
# The animals of Group 9 were anaesthetized followed by complete excision of the tumors. The tumors were examined for consistency and preserved in formalin for later histological evaluation, as were the tumor tissues of cohorts 10 and 11. Anaesthetized animals of cohort 10 were subjected to intratumoral administration of Bleomycin solution at a dose and volume as described above. EP was performed 10 minutes after drug administration. Tumors were excised 2 hrs after EP. Animals of cohort 11 were treated as those in cohort 10 except that their tumors were completely removed at 24 hrs after EP. All wounds were closed as described above. Results
# With respect to cohorts 9-11, we observed that the consistency of the tumor changed progressively with time after treatment. […] At that time point surgical excision was somewhat difficult because the boundaries of the tumor were ill defined as compared to the solid tumor tissue mass of cohort 9 animals. […] These observations provide proof of the opportunity of using drug, such as Bleomycin or other anticancer agent, in combination with EPT as adjuvant or tumor debulking therapy that can additionally be used alone or in conjunction with other cancer therapies. For example, a tumor could be treated with Bleomycin-EPT, the disintegrated tumor material be removed by a simple minimally invasive procedure, and if desired, followed by conventional treatments such as radiation or chemotherapy, or other tumor therapy modalities. Easy removal of the liquefied tumor material can also allow the wound to heal faster and with fewer complications, especially in the case of large tumors.
# [5] = tested on: HT-29 human colon carcinoma cells; conditions: stated as known, not tested; cited from earlier work
substance,measurement,setting,value
Bleomycin,reduction of breaking strength of skin incisions compared to non-Bleomycin groups,"[1]; 1 week post-incision, all three Bleomycin treated groups (with or without EP)",90%
same,"wound strength (breaking point), difference between saline and Bleomycin with or without EP","[1]; three weeks post incision, FIG. 1",no substantial difference
same,"breaking strength of skin incisions, difference between groups","[1]; week 2, longitudinal incisions, Bleomycin with or without EP (Groups 4, 5) vs Groups 1-3",no significant differences between Groups 1-5
same,"breaking strength of skin incisions, difference between groups","[1]; week 3, Group 6, transverse incisions with Bleomycin and EP vs Groups 1-5",significantly lower breaking strength
same,"muscle necrosis, Bleomycin plus EP vs Bleomycin","[2]; 2 weeks, difference disappeared by 3 weeks",significant increase in muscle necrosis
same,histological changes,"[2]; day 7, Bleomycin groups",statistically significant changes
same,histology compared with controls,"[2]; day 21, all Bleomycin injected samples",comparable with saline-injected controls
same,% efficacy (animals that did NOT experience tumor growth post treatment),"[3]; Group 1: complete tumor excision, Bleomycin i.v., EP",90%
same,tumor recurrence at the site of treatment,"[3]; Group 1: complete tumor removal, Bleomycin-EP, 3 weeks post treatment (FIG. 12)",no tumor recurred
same,% efficacy (animals that did NOT experience tumor growth post treatment),"[3]; Group 3: partial tumor excision, Bleomycin i.v., EP",67%
same,% efficacy (animals that did NOT experience tumor growth post treatment),"[3]; Group 5: Bleomycin intratumoral, EP, complete tumor excision 15 minutes later",100%
same,% efficacy (animals that did NOT experience tumor growth post treatment),"[3]; Group 6: no tumor excision, Bleomycin intratumoral, EP",80%
same,% efficacy (animals that did NOT experience tumor growth post treatment),"[3]; Group 7: Bleomycin intratumoral, EP, partial tumor excision 15 minutes later",100%
same,tumor recurrence,"[3]; Group 7: partial tumor removal, Bleomycin i.t. and EP, 3 weeks (FIG. 13)",no tumor recurrence
same,% efficacy (animals that did NOT experience tumor growth post treatment),"[3]; Group 8: no tumor excision, Bleomycin intratumoral, partial (off-centered) EP",67%
same,tumor recurrence,"[3]; cohorts 5 and 7: Bleomycin i.t. and EP, excision 15 minutes after treatment",no tumor recurrence
same,consistency of the tumor,[4]; cohort 10: excised two hours after i.t. Bleomycin-EP,"softer, less well defined"
same,consistency of the tumor,[4]; cohort 11: excised 24 hrs after i.t. Bleomycin-EP,completely softened
same,consistency of the tumor,[4]; cohorts 5 and 7: removed 15 minutes after i.t. Bleomycin-EP,softening of the tumor
same,antitumoral activity of Bleomycin administration without EP,[5],no significant antitumoral activity
